The source of these data is ChEMBL document CHEMBL1201862, “PubChem BioAssay data set” (2004).

Assay in all cases: NCI anticancer screen, dose series, 48 h
Test [1] deals with A549.
In test [2] the test system is DLD-1.
In test [3] the test system is DMS-114.
Test [4] has as its system DMS-273.
Test [5] concerns HCT-15.
Test [6] relates to HT-29.
The subject of test [7] is M19-MEL.
The subject of test [8] is NCI-H460.
The subject of test [9] is SF-268.
In test [10] the test system is SK-OV-3.
Test [11] concerns U-251.
For test [12], the system named is XF498.
For test [13], the system named is HCT-116.
The subject of test [14] is SR.

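48-hour exposure; five concentrations; linearly interpolated endpoints. GI50 is the concentration that inhibits growth by half.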 Active and inactive are the calls of the source. No stated cut-off is given here; in the data, active = GI50 up to about 1.1 µM and inactive = higher.

In the case of `O=C(CC/C(CC(=O)c1ccc(Cl)cc1)=N\O)Nc1cccc(Cl)c1`, the GI50 in test [1] was > 100 µM (inactive); in test [2] it was > 100 µM (inactive); in test [3] it was > 100 µM (inactive); in [4], > 100 µM (inactive); in test [5] it was more than 100 µM; in test [6] it was > 100 µM (inactive). The GI50 in test [7], in [8], in test [9], in test [10], in test [11] and in [12] was > 100 µM (inactive) throughout.

In the case of `Cc1cc(C)c2c(c1)CN1CN2Cc2cc(C)cc(C)c21`, the GI50 in test [1] was 27.2 µM (inactive); in test [2], 24.7 µM (inactive); in [4] it was 18.9 µM (inactive); in test [13], 19.4 µM (inactive); in test [5], more than 10 µM; in test [6], 16.3 µM (inactive). Further, the GI50 in test [7] is 23 µM (inactive); in [8], 15.9 µM (inactive); in test [9] it was 31.6 µM (inactive); in test [10], 27.8 µM (inactive); in test [14], 18.8 µM (inactive); in test [11], 17.5 µM (inactive). Besides, in test [12], the GI50 was 18.2 µM (inactive).

Regarding `CCOC(=O)C(=O)Nc1ccccc1C`, the GI50 in test [1] was > 100 µM (inactive); in test [2], > 100 µM (inactive); in [3] it was > 100 µM (inactive); in test [13] it was > 100 µM (inactive); in test [5], more than 100 µM; in [7], > 100 µM (inactive). Further, the GI50 was > 100 µM (inactive) in test [8]; > 100 µM (inactive) in [9]; > 100 µM (inactive) in test [10]; > 100 µM (inactive) in test [11]; 24.9 µM (inactive) in [12].

As for `CCCCOC(=O)/C(CC(=O)C=C(C)C)=N\NS(=O)(=O)c1ccc(C)cc1`, the GI50 is > 100 µM (inactive) in test [1]; 65.5 µM (inactive) in [2]; 21.1 µM (inactive) in test [3]; > 100 µM (inactive) in test [13]; 62.4 µM in [5]; > 100 µM (inactive) in test [6]. Also, the GI50 in test [7] is > 100 µM (inactive); in test [8], > 100 µM (inactive); in [9], > 100 µM (inactive); in test [10], > 100 µM (inactive); in test [14], 27.7 µM (inactive); in test [11] it was > 100 µM (inactive). Besides, the GI50 in test [12] was > 100 µM (inactive).

As for `O=C1Cc2ccccc2N1/N=C\c1ccc([N+](=O)[O-])cc1`, the GI50 in [1] is > 100 µM (inactive); in test [2], > 100 µM (inactive); in [3], > 100 µM (inactive); in test [4] it was > 100 µM (inactive); in [13], > 100 µM (inactive); in [5], more than 100 µM. Moreover, the GI50 in [6], in [7], in test [8], in test [9], in test [10] and in [11] was > 100 µM (inactive) each time. In addition, in test [12], the GI50 is > 100 µM (inactive).

In the case of `O=C(OCc1ccccc1)c1ccccc1-c1c2ccc(=O)cc-2oc2cc(OCc3ccccc3)ccc12`, the GI50 in test [1] is 6.7 µM (inactive); in test [2], 5.01 µM (inactive); in test [4] it was 7.03 µM (inactive); in test [13], 9.46 µM (inactive); in test [5], 9.84 µM; in test [6], 18.4 µM (inactive). Besides, the GI50 is 20.3 µM (inactive) in test [7]; 15.7 µM (inactive) in test [8]; 14.1 µM (inactive) in test [9]; 4.49 µM (inactive) in test [14]; 5.32 µM (inactive) in [11]; 15.7 µM (inactive) in test [12].

On to `CC(C)N(C(=O)C12C3C4C1C1C2C3C41C(=O)N(C(C)C)C(C)C)C(C)C` (centres undefined), for which the GI50 in test [1] is > 50 µM (inactive); in [2], > 50 µM (inactive); in test [3] it was > 50 µM (inactive); in test [4], > 50 µM (inactive); in test [13], > 50 µM (inactive); in test [5], more than 50 µM. Also, the GI50 in test [6], in test [7], in test [8], in test [9], in test [10] and in [11] was > 50 µM (inactive) in each case. Besides, the GI50 in [12] is > 50 µM (inactive).

For `NC(=O)c1cn(Cc2ccccc2)c(=O)n1Cc1ccccc1`, the GI50 in [1] was > 100 µM (inactive); in test [2], > 100 µM (inactive); in test [4] it was > 100 µM (inactive); in test [13], > 100 µM (inactive); in test [5] it was more than 100 µM; in [6], > 100 µM (inactive). Further, the GI50 in test [7], in [8], in [9], in test [10], in test [11] and in test [12] was > 100 µM (inactive) in each case.

Take `CCCNC(=O)C1C(=O)C(=O)N(CCC)C1=O` (centres undefined): the GI50 in test [1] was > 100 µM (inactive); in [2], > 100 µM (inactive); in test [3], > 100 µM (inactive); in test [4] it was > 100 µM (inactive); in test [13], > 100 µM (inactive); in test [5], more than 100 µM. In addition, the GI50 in test [6], in test [7], in test [8], in test [9], in test [10] and in test [11] was > 100 µM (inactive) each time. In addition, the GI50 in test [12] was > 100 µM (inactive).

As to `Cc1ccc(C2OC(COCc3ccc(Cl)cc3)C(OCc3ccc(Cl)cc3)C2O)cc1` (centres undefined), the GI50 in test [1] was 9.42 µM (inactive); in test [2], 9.29 µM (inactive); in [3], 5.24 µM (inactive); in test [4], 5.82 µM (inactive); in test [13], 11.5 µM (inactive); in [5], 7.85 µM. In addition, the GI50 is 7.69 µM (inactive) in [6]; 11.4 µM (inactive) in [7]; 4.49 µM (inactive) in [8]; 2.63 µM (inactive) in test [10]; 3.22 µM (inactive) in test [14]; 10.5 µM (inactive) in test [11]. The GI50 in test [12] is 10.2 µM (inactive).

With `OCC(O)C(OC1OC(CO)C(O)C(O)C1O)c1nn(-c2ccc(Cl)cc2)c2nc3cc(Cl)ccc3nc12` (centres undefined), the GI50 in test [2] was > 100 µM (inactive); in test [3], > 100 µM (inactive); in test [13], > 100 µM (inactive); in test [5], more than 100 µM; in [6], > 100 µM (inactive); in [7], > 100 µM (inactive). The GI50 in test [8], in test [9], in test [10], in test [14], in test [11] and in test [12] was > 100 µM (inactive) in each case.

Consider `COC(=O)NC12CC3CC(CC(F)(C3)C1)C2`, for which the GI50 in test [1], in test [2], in test [4], in [13], in [6] and in test [7] was > 100 µM (inactive) throughout. Besides, the GI50 in test [8], in test [10], in test [11] and in test [12] was > 100 µM (inactive) each time.

For `O=C(CCC(=O)Nc1cccc(Cl)c1)CC(=O)c1ccc(F)cc1`, the GI50 in test [1] is > 100 µM (inactive); in test [2] it was > 100 µM (inactive); in [4], > 100 µM (inactive); in [13] it was > 100 µM (inactive); in [5], more than 100 µM; in test [6], > 100 µM (inactive). Further, the GI50 in test [8], in test [9], in test [10], in test [14] and in [12] was > 100 µM (inactive) each time.

Take `N#CC(C(=O)CCC(=O)Nc1cccc(C(F)(F)F)c1)c1ccc(Cl)cc1` (centres undefined): the GI50 in test [1] was > 100 µM (inactive); in test [2], > 100 µM (inactive); in test [4], > 100 µM (inactive); in test [13] it was > 100 µM (inactive); in test [5] it was more than 100 µM; in test [6], > 100 µM (inactive). The GI50 in test [7], in test [8], in test [9], in test [10], in [11] and in [12] was > 100 µM (inactive) in each case.

`CCOC(=O)[C@]12C3C=CC(C3)C1C(=O)C1OC12` (some centres undefined): the GI50 was > 100 µM (inactive) in [1]; > 100 µM (inactive) in test [2]; > 100 µM (inactive) in test [3]; > 100 µM (inactive) in [4]; > 100 µM (inactive) in test [13]; more than 100 µM in [5]. Also, the GI50 in test [6], in [7], in test [8], in test [9], in [10] and in [11] was > 100 µM (inactive) throughout. Further, in test [12], the GI50 is > 100 µM (inactive).

As for `Cc1cccc(N(CC(=O)O)S(=O)(=O)c2ccccc2)c1`, the GI50 was > 100 µM (inactive) in test [1]; > 100 µM (inactive) in [2]; > 100 µM (inactive) in test [4]; more than 100 µM in [5]; > 100 µM (inactive) in test [6]; > 100 µM (inactive) in test [7]. The GI50 in test [8], in test [9], in test [10], in test [11] and in test [12] was > 100 µM (inactive) each time.
